Assay results as given in patent publication US8802597B2, “Herbicidal pyrimidines” (E I du Pont de Nemours and Company, priority 2003, dated 2014).

Key:
Assay type in all cases: in vivo
[1] = test system: sugarcane (Saccharum officinarum); assay: Test G sugarcane pre/postemergence
From the text: Also at a different time, seed pieces (nodes) of sugarcane (Saccharum officinarum) were planted and treated preemergence and/or postemergence with some of the test chemicals formulated in the same manner. Treated plants and controls were maintained in a greenhouse for 14 days, after which time the treated plants were compared to controls and visually evaluated.
Plant response ratings, summarized in Table G, are based on a scale of 0 to 100 where 0 is no effect and 100 is complete control. A dash (-) response means no test result.

[2] = test system: annual bluegrass (Poa annua); assay: Test F pre/postemergence
From the text: (§1) Seeds or nutlets of plant species selected from (turf) bermudagrass (Cynodon dactylon), Kentucky bluegrass (Poa pratensis), bentgrass (Agrostis palustris), hard fescue (Festuca ovina), large crabgrass (Digitaria sanguinalis), goosegrass (Eleusine indica), dallisgrass (Paspalum dilatatum), annual bluegrass (Poa annua), common chickweed (Stellaria media), dandelion (Taraxacum officinale), white clover (Trifolium repens), and yellow nutsedge (Cyperus esculentus) were planted and treated preemergence with the test chemical formulated in a non-phytotoxic solvent mixture which included a surfactant.
(§2) At the same time, plants selected from these crop and weed species were treated with postemergence applications of the test chemical formulated in the same manner. Plants ranged in height from 2 to 18 cm (1- to 4-leaf stage) for postemergence treatments. Treated plants and controls were maintained in a greenhouse for 12 to 14 days, after which time all species were compared to controls and visually evaluated. Plant response ratings, summarized in Table F, are based on a scale of 0 to 100 where 0 is no effect and 100 is complete control. A dash (-) response means no test result.

[3] = test system: white clover (Trifolium repens); assay: Test F pre/postemergence
From the text: as §1, §2

[4] = test system: Kentucky bluegrass (Poa pratensis); assay: Test F pre/postemergence
From the text: as §1, §2

[5] = test system: (turf) bermudagrass (Cynodon dactylon); assay: Test F pre/postemergence
From the text: as §1, §2

[6] = test system: yellow nutsedge (Cyperus esculentus); assay: Test F pre/postemergence
From the text: as §1, §2

[7] = test system: common chickweed (Stellaria media); assay: Test F pre/postemergence
From the text: as §1, §2

[8] = test system: goosegrass (Eleusine indica); assay: Test F pre/postemergence
From the text: as §1, §2

[9] = test system: dandelion (Taraxacum officinale); assay: Test F pre/postemergence
From the text: as §1, §2

[10] = test system: large crabgrass (Digitaria sanguinalis); assay: Test F pre/postemergence
From the text: as §1, §2

[11] = test system: bentgrass (Agrostis palustris); assay: Test F pre/postemergence
From the text: as §1, §2

[12] = test system: hard fescue (Festuca ovina); assay: Test F pre/postemergence
From the text: as §1, §2

Compound: CCOC(=O)c1nc(C2CC2)nc(N)c1Br [Compound 1, ethyl 6-amino-5-bromo-2-cyclopropyl-4-pyrimidinecarboxylate]
- Plant response rating, Sugarcane ([1]; Postemergence, 250 g ai/ha, scale 0 to 100): 13
- Plant response rating, Sugarcane ([1]; Postemergence, 500 g ai/ha, scale 0 to 100): 38
- Plant response rating, Sugarcane ([1]; Postemergence, 31 g ai/ha, scale 0 to 100): 0
- Plant response rating, Sugarcane ([1]; Postemergence, 62 g ai/ha, scale 0 to 100): 0
- Plant response rating, Sugarcane ([1]; Postemergence, 125 g ai/ha, scale 0 to 100): 3
- Plant response rating, Sugarcane ([1]; Preemergence, 62 g ai/ha, scale 0-100): 0
- Plant response rating, Sugarcane ([1]; Preemergence, 125 g ai/ha, scale 0-100): 0
- Plant response rating, Sugarcane ([1]; Preemergence, 250 g ai/ha, scale 0-100): 0
- Plant response rating, Sugarcane ([1]; Preemergence, 375 g ai/ha, scale 0-100): 0
- Plant response rating (0 to 100 scale) ([2]; Postemergence, 31 g ai/ha): 35
- Plant response rating (0 to 100 scale) ([2]; Postemergence, 125 g ai/ha): 45
- Plant response rating (0 to 100 scale) ([2]; Postemergence, 250 g ai/ha): 70
- Plant response rating (0 to 100 scale) ([2]; Postemergence, 500 g ai/ha): 95
- Plant response rating (0 to 100 scale) ([2]; Preemergence, 31 g ai/ha): 20
- Plant response rating (0 to 100 scale) ([2]; Preemergence, 62 g ai/ha): 65
- Plant response rating (0 to 100 scale) ([2]; Preemergence, 125 g ai/ha): 45
- Plant response rating (0 to 100 scale) ([2]; Preemergence, 250 g ai/ha): 70
- Plant response rating (0 to 100 scale) ([2]; Preemergence, 500 g ai/ha): 70
- Plant response rating (0 to 100 scale) ([3]; Postemergence, 31 g ai/ha): 70
- Plant response rating (0 to 100 scale) ([3]; Postemergence, 62 g ai/ha): 90
- Plant response rating (0 to 100 scale) ([3]; Postemergence, 125 g ai/ha): 100
- Plant response rating (0 to 100 scale) ([3]; Postemergence, 250 g ai/ha): 100
- Plant response rating (0 to 100 scale) ([3]; Postemergence, 500 g ai/ha): 100
- Plant response rating (0 to 100 scale) ([3]; Preemergence, 31 g ai/ha): 80
- Plant response rating (0 to 100 scale) ([3]; Preemergence, 62 g ai/ha): 100
- Plant response rating (0 to 100 scale) ([3]; Preemergence, 125 g ai/ha): 100
- Plant response rating (0 to 100 scale) ([3]; Preemergence, 250 g ai/ha): 100
- Plant response rating (0 to 100 scale) ([3]; Preemergence, 500 g ai/ha): 100
- Plant response rating (0 to 100 scale) ([4]; Postemergence, 31 g ai/ha): 20
- Plant response rating (0 to 100 scale) ([4]; Postemergence, 62 g ai/ha): 0
- Plant response rating (0 to 100 scale) ([4]; Postemergence, 125 g ai/ha): 0
- Plant response rating (0 to 100 scale) ([4]; Postemergence, 250 g ai/ha): 0
- Plant response rating (0 to 100 scale) ([4]; Postemergence, 500 g ai/ha): 30
- Plant response rating (0 to 100 scale) ([4]; Preemergence, 31 g ai/ha): 0
- Plant response rating (0 to 100 scale) ([4]; Preemergence, 62 g ai/ha): 30
- Plant response rating (0 to 100 scale) ([4]; Preemergence, 125 g ai/ha): 30
- Plant response rating (0 to 100 scale) ([4]; Preemergence, 250 g ai/ha): 40
- Plant response rating (0 to 100 scale) ([4]; Preemergence, 500 g ai/ha): 80
- Plant response rating (0 to 100 scale) ([5]; Postemergence, 31 g ai/ha): 0
- Plant response rating (0 to 100 scale) ([5]; Postemergence, 62 g ai/ha): 20
- Plant response rating (0 to 100 scale) ([5]; Postemergence, 125 g ai/ha): 40
- Plant response rating (0 to 100 scale) ([5]; Postemergence, 250 g ai/ha): 50
- Plant response rating (0 to 100 scale) ([5]; Postemergence, 500 g ai/ha): 70
- Plant response rating (0 to 100 scale) ([5]; Preemergence, 31 g ai/ha): 10
- Plant response rating (0 to 100 scale) ([5]; Preemergence, 62 g ai/ha): 40
- Plant response rating (0 to 100 scale) ([5]; Preemergence, 125 g ai/ha): 50
- Plant response rating (0 to 100 scale) ([5]; Preemergence, 250 g ai/ha): 80
- Plant response rating (0 to 100 scale) ([5]; Preemergence, 500 g ai/ha): 90
- Plant response rating (0 to 100 scale) ([6]; Postemergence, 31 g ai/ha): 0
- Plant response rating (0 to 100 scale) ([6]; Postemergence, 62 g ai/ha): 10
- Plant response rating (0 to 100 scale) ([6]; Postemergence, 125 g ai/ha): 10
- Plant response rating (0 to 100 scale) ([6]; Postemergence, 250 g ai/ha): 15
- Plant response rating (0 to 100 scale) ([6]; Postemergence, 500 g ai/ha): 15
- Plant response rating (0 to 100 scale) ([6]; Preemergence, 31 g ai/ha): 0
- Plant response rating (0 to 100 scale) ([6]; Preemergence, 62 g ai/ha): 15
- Plant response rating (0 to 100 scale) ([6]; Preemergence, 125 g ai/ha): 30
- Plant response rating (0 to 100 scale) ([6]; Preemergence, 250 g ai/ha): 25
- Plant response rating (0 to 100 scale) ([6]; Preemergence, 500 g ai/ha): 70
- Plant response rating (0 to 100 scale) ([7]; Postemergence, 31 g ai/ha): 0
- Plant response rating (0 to 100 scale) ([7]; Postemergence, 62 g ai/ha): 80
- Plant response rating (0 to 100 scale) ([7]; Postemergence, 125 g ai/ha): 85
- Plant response rating (0 to 100 scale) ([7]; Postemergence, 250 g ai/ha): 85
- Plant response rating (0 to 100 scale) ([7]; Postemergence, 500 g ai/ha): 100
- Plant response rating (0 to 100 scale) ([7]; Preemergence, 31 g ai/ha): 80
- Plant response rating (0 to 100 scale) ([7]; Preemergence, 62 g ai/ha): 100
- Plant response rating (0 to 100 scale) ([7]; Preemergence, 125 g ai/ha): 100
- Plant response rating (0 to 100 scale) ([7]; Preemergence, 250 g ai/ha): 100
- Plant response rating (0 to 100 scale) ([7]; Preemergence, 500 g ai/ha): 100
- Plant response rating (0 to 100 scale) ([8]; Postemergence, 31 g ai/ha): 5
- Plant response rating (0 to 100 scale) ([8]; Postemergence, 62 g ai/ha): 10
- Plant response rating (0 to 100 scale) ([8]; Postemergence, 125 g ai/ha): 35
- Plant response rating (0 to 100 scale) ([8]; Postemergence, 250 g ai/ha): 40
- Plant response rating (0 to 100 scale) ([8]; Postemergence, 500 g ai/ha): 50
- Plant response rating (0 to 100 scale) ([8]; Preemergence, 31 g ai/ha): 30
- Plant response rating (0 to 100 scale) ([8]; Preemergence, 62 g ai/ha): 40
- Plant response rating (0 to 100 scale) ([8]; Preemergence, 125 g ai/ha): 30
- Plant response rating (0 to 100 scale) ([8]; Preemergence, 250 g ai/ha): 65
- Plant response rating (0 to 100 scale) ([8]; Preemergence, 500 g ai/ha): 85
- Plant response rating (0 to 100 scale) ([9]; Postemergence, 31 g ai/ha): 50
- Plant response rating (0 to 100 scale) ([9]; Postemergence, 62 g ai/ha): 75
- Plant response rating (0 to 100 scale) ([9]; Postemergence, 125 g ai/ha): 75
- Plant response rating (0 to 100 scale) ([9]; Postemergence, 250 g ai/ha): 85
- Plant response rating (0 to 100 scale) ([9]; Postemergence, 500 g ai/ha): 95
- Plant response rating (0 to 100 scale) ([9]; Preemergence, 31 g ai/ha): 35
- Plant response rating (0 to 100 scale) ([9]; Preemergence, 62 g ai/ha): 95
- Plant response rating (0 to 100 scale) ([9]; Preemergence, 125 g ai/ha): 100
- Plant response rating (0 to 100 scale) ([9]; Preemergence, 250 g ai/ha): 100
- Plant response rating (0 to 100 scale) ([9]; Preemergence, 500 g ai/ha): 100
- Plant response rating (0 to 100 scale) ([10]; Postemergence, 31 g ai/ha): 0
- Plant response rating (0 to 100 scale) ([10]; Postemergence, 62 g ai/ha): 45
- Plant response rating (0 to 100 scale) ([10]; Postemergence, 125 g ai/ha): 70
- Plant response rating (0 to 100 scale) ([10]; Postemergence, 250 g ai/ha): 75
- Plant response rating (0 to 100 scale) ([10]; Postemergence, 500 g ai/ha): 90
- Plant response rating (0 to 100 scale) ([10]; Preemergence, 31 g ai/ha): 15
- Plant response rating (0 to 100 scale) ([10]; Preemergence, 62 g ai/ha): 40
- Plant response rating (0 to 100 scale) ([10]; Preemergence, 125 g ai/ha): 85
- Plant response rating (0 to 100 scale) ([10]; Preemergence, 250 g ai/ha): 95
- Plant response rating (0 to 100 scale) ([10]; Preemergence, 500 g ai/ha): 100
- Plant response rating (0 to 100 scale) ([11]; Postemergence, 31 g ai/ha): 0
- Plant response rating (0 to 100 scale) ([11]; Postemergence, 62 g ai/ha): 30
- Plant response rating (0 to 100 scale) ([11]; Postemergence, 125 g ai/ha): 50
- Plant response rating (0 to 100 scale) ([11]; Postemergence, 250 g ai/ha): 50
- Plant response rating (0 to 100 scale) ([11]; Postemergence, 500 g ai/ha): 70
- Plant response rating (0 to 100 scale) ([11]; Preemergence, 31 g ai/ha): 50
- Plant response rating (0 to 100 scale) ([11]; Preemergence, 62 g ai/ha): 60
- Plant response rating (0 to 100 scale) ([11]; Preemergence, 125 g ai/ha): 60
- Plant response rating (0 to 100 scale) ([11]; Preemergence, 250 g ai/ha): 90
- Plant response rating (0 to 100 scale) ([11]; Preemergence, 500 g ai/ha): 100
- Plant response rating (0 to 100 scale) ([12]; Postemergence, 31 g ai/ha): 0
- Plant response rating (0 to 100 scale) ([12]; Postemergence, 62 g ai/ha): 0
- Plant response rating (0 to 100 scale) ([12]; Postemergence, 125 g ai/ha): 0
- Plant response rating (0 to 100 scale) ([12]; Postemergence, 250 g ai/ha): 0
- Plant response rating (0 to 100 scale) ([12]; Postemergence, 500 g ai/ha): 0
- Plant response rating (0 to 100 scale) ([12]; Preemergence, 31 g ai/ha): 50
- Plant response rating (0 to 100 scale) ([12]; Preemergence, 62 g ai/ha): 60
- Plant response rating (0 to 100 scale) ([12]; Preemergence, 125 g ai/ha): 60
- Plant response rating (0 to 100 scale) ([12]; Preemergence, 250 g ai/ha): 60
- Plant response rating (0 to 100 scale) ([12]; Preemergence, 500 g ai/ha): 90
